Key:
[1] = Stability investigation of crystal form I (XRPD, long-term placement); type: physicochemical; conditions: long-term 25° C., 60% RH, dark, sealed, sampling time 5 days
Experimental: The crystal form I sample prepared by embodiment 2 was placed in the dark, sealed and placed flat, and the stability of the sample was investigated long-term (25° C., 60% RH), sampling time was 5 days, and XRPD was used to detect whether the crystal form changed.

[2] = Solubility comparison of the fumarate salt and free base in water; type: physicochemical; conditions: thermodynamic from solid; pure water, stirred overnight, filtered, HPLC
Text: Test sample: compound represented by formula (II) (free base) prepared by comparative experiment 2 and product prepared by embodiment 1 (compound represented by formula (I));
The tested sample was weighted and added into pure water, then stirred by a magnetic stirrer overnight, and then filtered and diluted to a certain volume for sample injection;
HPLC chromatographic conditions: acetonitrile-0.1% aqueous trifluoroacetic acid (50:50) used as mobile phase, detection wavelength 264 nm, injection volume 10 μL, flow rate 1.0 mL/min.

SMILES	XRPD peak pattern (crystal form change) [1]	solubility [2]
CCO[C@H]1CC[C@H](NCC[C@@]2(c3ccccn3)CCOC3(CCCC3)C2)c2ccccc21.O=C(O)/C=C/C(=O)O [Compound represented by formula (I), (1S,4S)-4-ethoxy-N-(2-((R)-9-(pyridin-2-yl)-6-oxaspiro[4.5]deca-9-yl)ethyl)-1,2,3,4-tetrahydronaphthalen-1-amine fumarate salt]	remained unchanged	31.3 mg/mL
CCO[C@H]1CC[C@H](NCC[C@@]2(c3ccccn3)CCOC3(CCCC3)C2)c2ccccc21 [Free base, (1S,4S)-4-ethoxy-N-(2-((R)-9-(pyridin-2-yl)-6-oxaspiro[4.5]deca-9-yl)ethyl)-1,2,3,4-tetrahydronaphthalen-1-amine]	–	0.0022 mg/mL

From patent publication US11014914B2, “Opioid receptor (MOR) agonist salt, fumarate salt crystal form I thereof and preparation method thereof” (Jiangsu Hengrui Medicine Co., Ltd., priority 2017, dated 2021)
